Test system: GSC1228
Experiment: Stemness / differentiation marker expression (qPCR, western blot)
Format: cell-based
Settings: GSC1228, 5 μM, 96 h
From the text: Super-enhancers consist of enhancer clusters with abundant binding of transcription factors and are highly enriched with H3K27ac marks. The H3K4me2 increased regions included the MYC locus and H3K4me2 de novo regions comprised Nestin and SOX2 loci (Fig. 2F, Supplementary Fig. S5A). These regions were also identified as super-enhancers in GSCs using data from our previous study (Fig. 2F). Compared to the large increase in H3K4me2 in these regions, changes in H3K4me3 were subtle after S2172 treatment (only 2582 regions were acquired modification) (Fig. 2C). Increasing the me2/me3 ratio at H3K4 is associated with reduced gene expression.
A mRNA expression of stem cell marker genes following 96 h treatment of GSC1228 with S2172 (5 μM). The y-axis indicates the expression change relative to DMSO-treated cells. Error bar indicates the SD. *P < 0.05. B Left panel, western blot analysis of MYC, Nestin, and SOX2 after treatment of GSC1228 with either DMSO or S2172 (5 μM) for 96 h. β-actin (ACTB) was used as the loading control. Right panel, Quantification of band signal intensities from the western blot. C mRNA expression of the differentiation marker gene, GFAP, following treatment of GSC1228 with S2172 (5 μM) for 96 h. The y-axis indicates the expression change relative to DMSO-treated cells. Error bar indicates the SD. D PARP cleavage ratio after treatment of GSC1228, GSC222, and GSC316 with S2172 (5 μM). The ratio was calculated by dividing the cleaved-PARP band intensity by the full length-PARP band intensity. Error bar indicates the SD. *P < 0.05. E Representative Western blot results of RAPR after treatment of GSC1228, GSC222, and GSC316 with either DMSO or S2172 (5 μM) for 96 h. The full length-PARP band (106 kDa) and cleaved PARP band (89 kDa) are shown. β-actin (ACTB) was used as the loading control. n = 4. […]
instructions. For GSC cells, the CellTiter-Glo 3D Viability Assay (Promega, Madison, WI, USA) was used to measure the living cells. All proliferation experiments were repeated […]
The density of bands was quantified using ImageJ software (https://imagej.nih.gov/ij/). […]

NC1CCC(NC2CC2c2cc(F)cc(F)c2OCc2ccccc2)CC1 (stereo not drawn) [S2172]
mRNA level of stemness marker genes MYC, Nestin, SOX2: significantly downregulated
protein level of MYC, Nestin, SOX2: tended to be downregulated
transcription of astrocytic marker GFAP: did not transcriptionally induce
